Measurements reported in paper PMC9014845 (Clinical cancer research : an official journal of the …, 2019).

How the values were obtained:
[1] = system: FGFR; assay: Tissue biomarkers in skin and tumor biopsies; format: in vivo, human
[2] = system: tumor models with FGFR alterations; conditions: several tumor models with FGFR alterations in vivo; cited from earlier work
[3] = Plasma pharmacokinetics; format: in vivo, human
[4] = system: FGFR; assay: Blood PD biomarkers; format: in vivo, human
[5] = system: FGFRs 1–3; conditions: in vitro, ATP-competitive; cited from earlier work
[6] = Allometric scaling of single dose PK data from mice, rats and monkeys; set-up: species or system human; conditions: allometric scaling model of single dose PK data from mice, rats, monkeys
[7] = system: monkeys; assay: 4-week repeated-dose toxicity study; format: in vivo, monkey
[8] = system: advanced solid tumors harboring FGFR1–3 gene alterations; assay: Tumor response according to RECIST 1.1

Debio 1347
DUSP6 mRNA expression change in tumor biopsies ([1]; on treatment (day 8), 14 paired biopsies): a decrease in DUSP6 was observed
Change of phosphorylated markers (pERK, pFRS2, pS6) in skin biopsies ([1]; predose to day 8, 31 biopsy pairs, immunohistochemistry): no clear decrease
Patients with DUSP6 decrease >50% who achieved a PR ([1]; tumor biopsies): two out of three
Efficacy in tumor models [2]: effective
Mean relative oral bioavailability of tablets versus capsules ([3]; 40 mg single dose, cross-over, 90% CI 0.73–1.05, n=9): 0.88
Time to steady-state (Ctrough) ([3]; majority of patients, once-daily dosing): during the first week of treatment
Time to detection in plasma ([3]; post-first dose, majority of patients): ≤ 30 min
Median tmax ([3]; post-first oral dose, range 1.5–24): 3 h
Plasma half-life (mean) ([3]; post-first oral dose, range 4.7–20.6): 11.5 h
Mean apparent oral clearance ([3]; range 2.7–13.9): 7.0 L/h
Hyperphosphatemia versus plasma exposure ([4]; maximum serum phosphate in cycle 1 versus plasma trough levels): correlated with Debio 1347 exposure
Dose at which serum phosphate confirmed target engagement ([4]; oral once daily): ≥ 60 mg/day
Ctrough at which serum phosphate increases of 50% from baseline were achieved ([4]; seen in about half of patients at 60 mg/day, majority at ≥80 mg/day): about 400 ng/mL
Plasma FGF23 change ([4]; steady-state, without clear relationship to the dose): overall increase
Inhibitory concentration for FGFRs 1–3 [5]: low nanomolar
Predicted plasma half-life in humans [6]: 9 h
Highest non-severely toxic dose [7]: 4 mg/kg/day
Disease stabilization among patients with confirmed FGFR fusions ([8]; 10 patients, doses ≥60 mg/day): 5 patients
PRs among patients with confirmed FGFR fusions ([8]; 10 patients, doses ≥60 mg/day): 3 patients
Patients with stable disease as best objective response ([8]; 57 evaluable): 16 patients
Patients with stable disease showing reduced target lesion size (tumor size regressions of ≤30%) ([8]; 57 evaluable): 10 patients
Response per independent central radiological review ([8]; one patient with cholangiocarcinoma, 110 mg, changed from partial): confirmed complete response
Disease control rate (DCR) ([8]; overall): 39%
Disease control rate (DCR) ([8]; patients with confirmed FGFR fusions, ≥60 mg/day): 80%
Median treatment duration in patients with disease control ([8]; range 24–47): 34 weeks
